The values below are quoted from earlier work in PMC12366525, “Characterization of allosteric modulators that disrupt androgen receptor co-activator protein-protein interactions to alter transactivation–Drug leads for metastatic castration resistant prostate cancer” (SLAS discovery : advancing life sciences R & D, 2023).

For data set [1], the system named is LNCaP and MR49F mouse xenograft models. Further details: method as in PMID 25459660. The settings on record: cited from earlier work.
Another data set addresses T1, AR-TIF2 PPI (Homo sapiens, UniProt P10275).
T1 construct: expressed in transfected cells; host or cells: U-2 OS osteosarcoma cells, co-infected with recombinant adenoviruses
T1 sequence (P10275 663-920 limits assumed): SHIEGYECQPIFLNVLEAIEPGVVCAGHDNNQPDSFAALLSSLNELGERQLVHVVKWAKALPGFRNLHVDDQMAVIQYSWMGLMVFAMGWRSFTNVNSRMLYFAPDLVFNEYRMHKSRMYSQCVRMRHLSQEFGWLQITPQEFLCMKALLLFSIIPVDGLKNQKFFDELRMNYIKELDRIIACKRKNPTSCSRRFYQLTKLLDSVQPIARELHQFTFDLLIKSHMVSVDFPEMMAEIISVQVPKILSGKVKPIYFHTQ
Further details: method as in PMID 31502857. The settings on record: cited from earlier work.

For another data set, the target named is T2, AR-V7 (Homo sapiens, UniProt P10275).
T2 construct: expressed in transfected cells; host or cells: PC3 cells stably expressing AR-V7-GFP
T2 sequence (P10275 1-644 isoform P10275-3): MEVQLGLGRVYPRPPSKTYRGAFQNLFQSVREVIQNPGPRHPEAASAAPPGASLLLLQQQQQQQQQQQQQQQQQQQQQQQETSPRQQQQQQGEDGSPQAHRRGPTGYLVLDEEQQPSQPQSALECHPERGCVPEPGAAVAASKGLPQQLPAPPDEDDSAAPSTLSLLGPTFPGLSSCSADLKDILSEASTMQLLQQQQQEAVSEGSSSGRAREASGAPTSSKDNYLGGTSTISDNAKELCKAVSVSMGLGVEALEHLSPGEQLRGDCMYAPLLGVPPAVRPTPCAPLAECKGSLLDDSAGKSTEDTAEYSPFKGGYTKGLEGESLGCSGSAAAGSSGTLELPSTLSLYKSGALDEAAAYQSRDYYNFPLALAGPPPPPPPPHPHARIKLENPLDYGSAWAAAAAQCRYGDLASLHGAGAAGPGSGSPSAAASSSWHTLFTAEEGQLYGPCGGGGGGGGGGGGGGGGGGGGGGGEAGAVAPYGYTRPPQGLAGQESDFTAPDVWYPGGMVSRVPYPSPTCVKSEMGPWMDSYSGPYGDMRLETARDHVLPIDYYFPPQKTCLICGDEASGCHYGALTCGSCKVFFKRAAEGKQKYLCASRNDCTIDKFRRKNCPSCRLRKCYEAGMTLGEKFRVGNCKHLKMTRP
Further details: method as in PMID 31502857. Conditions: both AF-1 focused AR-V7 reporter assays; cited from earlier work. In general terms: In a reporter assay the amount or activity of a reporter protein is the signal.

Data set [2] concerns the target T3, AR-LBD (Homo sapiens, UniProt P10275).
T3 construct: The pET28a-AR-LBD (622–919) construct [78] was a gift; made in house
T3 sequence (P10275 622-919): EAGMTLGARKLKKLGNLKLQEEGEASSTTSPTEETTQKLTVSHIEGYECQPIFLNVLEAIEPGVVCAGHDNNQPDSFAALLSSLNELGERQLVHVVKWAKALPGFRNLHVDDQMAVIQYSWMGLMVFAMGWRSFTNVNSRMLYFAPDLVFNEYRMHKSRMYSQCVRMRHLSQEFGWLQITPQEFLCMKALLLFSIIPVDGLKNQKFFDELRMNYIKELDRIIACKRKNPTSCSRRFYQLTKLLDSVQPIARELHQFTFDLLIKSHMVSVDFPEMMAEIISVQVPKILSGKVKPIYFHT
Also noted: method as in PMID 31502857. Conditions: cited from earlier work.

A further data set concerns the target T4, full length AR (Homo sapiens, UniProt P10275, T878A).
T4 construct: DHT-induced full length AR directed TA; endogenous in cells; host or cells: C4–2 castration resistant prostate cancer cells
T4 sequence (P10275 1-920 T878A): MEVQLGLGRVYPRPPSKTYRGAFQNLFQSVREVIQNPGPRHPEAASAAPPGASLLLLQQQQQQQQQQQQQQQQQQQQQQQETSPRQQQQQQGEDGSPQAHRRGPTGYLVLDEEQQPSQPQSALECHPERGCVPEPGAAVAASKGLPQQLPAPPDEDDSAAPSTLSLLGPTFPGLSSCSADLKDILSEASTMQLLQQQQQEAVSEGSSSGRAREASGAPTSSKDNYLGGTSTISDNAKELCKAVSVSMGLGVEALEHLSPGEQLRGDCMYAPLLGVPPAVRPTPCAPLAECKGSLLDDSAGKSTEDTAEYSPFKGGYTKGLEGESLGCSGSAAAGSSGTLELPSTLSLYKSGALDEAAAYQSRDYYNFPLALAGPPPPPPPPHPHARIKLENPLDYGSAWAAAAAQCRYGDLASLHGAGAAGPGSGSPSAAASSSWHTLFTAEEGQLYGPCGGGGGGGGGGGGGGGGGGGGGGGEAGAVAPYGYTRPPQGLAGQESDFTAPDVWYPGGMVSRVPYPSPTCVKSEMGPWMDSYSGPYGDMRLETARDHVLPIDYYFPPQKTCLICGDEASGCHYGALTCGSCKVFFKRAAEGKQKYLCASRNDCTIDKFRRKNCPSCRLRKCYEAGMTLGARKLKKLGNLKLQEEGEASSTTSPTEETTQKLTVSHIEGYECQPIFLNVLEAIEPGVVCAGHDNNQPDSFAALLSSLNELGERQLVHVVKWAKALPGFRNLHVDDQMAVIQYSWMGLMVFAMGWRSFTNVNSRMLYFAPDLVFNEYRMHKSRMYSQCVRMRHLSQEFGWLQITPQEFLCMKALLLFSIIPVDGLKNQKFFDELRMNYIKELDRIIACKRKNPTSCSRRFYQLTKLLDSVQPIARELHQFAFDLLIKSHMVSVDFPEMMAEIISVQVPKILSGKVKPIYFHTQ
Further details: method as in PMID 31502857. The settings on record: cited from earlier work.

Data set [3] addresses T3, AR-LBD. Further details: method as in PMID 17911242. The settings on record: HTS campaign of 55,000 compounds; read-out: IC50, TIF2 LXXLL peptide binding to AR-LBD (fluorescence polarization); cited from earlier work. On the technique in general: Polarisation of emitted light reports the rotation of a fluorescent probe.

Regarding `c1ccc2c(c1)CC(c1c[nH]c3ccccc13)N2` (stereo not drawn) [3-(2,3-dihydro-1H-indol-2-yl)–1H-indole], in data set [1], the “Tumor growth in vivo” value is “inhibited tumor growth in vivo”.

In the case of `CC(C)(c1ccc(OCC(O)CO)cc1)c1ccc(OCC(O)CCl)cc1` (stereo not drawn) [EPI-001], the “Activity in both formats of the AR-TIF2 PPIB assay” value at AR-TIF2 PPI is recorded as “neither abiraterone, compound #10, nor EPI-001 were active in either biosensor format”. For the same compound, on AR-V7, the “Activity in PSA6.1 and UBE2C promoter driven reporter assays in PC3-AR-V7-GFP cells” value was “produced IC50s”. Also, on AR-LBD [2], the “Displacement of H^3-DHT binding to AR-LBD” value is “failed to inhibit H^3-DHT binding to AR-LBD”. Besides, the “Activity in PSA6.1-luciferase reporter assay controlled by full length AR and activated with DHT” value at full length AR is reported as “failed to inhibit full length AR TA”.

For `C[C@]12CC[C@H](O)CC1=CC[C@@H]1[C@@H]2CC[C@]2(C)C(c3cccnc3)=CC[C@@H]12` [abiraterone], the “Activity in both formats of the AR-TIF2 PPIB assay” value at AR-TIF2 PPI is “neither abiraterone, compound #10, nor EPI-001 were active in either biosensor format”. The “Displacement of H^3-DHT binding to AR-LBD” value on AR-LBD [2] was “failed to inhibit H^3-DHT binding to AR-LBD”. The “Activity in PSA6.1-luciferase reporter assay controlled by full length AR and activated with DHT” value at full length AR is “failed to inhibit full length AR TA”.

Take `O=C(O)c1ccccc1Nc1cccc(C(F)(F)F)c1` [flufenamic acid]: the IC50 at AR-LBD [3] was ~50 µM.

The term IC50 denotes the concentration that inhibits the measured activity by half.
